Results from US20120302609A1, “Pyrazolines for the Modulation of PKM2” (Dynamix Pharmaceuticals LTD., priority 2011, published 2012).
“And” between values parts separate entries of the source, which are not always exact repeats. Identical values can stand only once.

What was measured:
[1] = system: H1299 (Non-small cell lung carcinoma cell line); test: Cell proliferation index assay, Assay Protocol II (Fluofarma, flow cytometry); type: cell-based; conditions: Homo sapiens, NCI-H1299
Experimental: In a second assay to determine the inhibition of cell proliferation by a test compound, cell proliferation of the cell line of interest was measured by a cell proliferation index assay using Fluofarma (www.fluofarma.com) based technology. This assay is based on the dilution rate of a fluorescent membrane marker, which is a direct function of the number of cell divisions. Briefly, the assay is performed by loading the cells with a non-toxic fluorescent phospholipid analog before the seeding. […] Flow cytometry analysis of the fluorescent probe is performed after the loading of the cells both prior to, as well as after treatment with various concentrations of the test compound. The dilution rate of the fluorescent probe at the single cell level is directly correlated to the number of cell divisions.

[2] = system: H1299 Human Non-Small Cell Lung Carcinoma; test: H1299 human non-small cell lung carcinoma nude mouse xenograft model, tumor growth delay; type: in vivo, mice
Experimental: The animals were fed ad libitum water (reverse osmosis, 1 ppm Cl) and NIH 31 Modified and Irradiated Lab Diet® consisting of 18.0% crude protein, 5.0% crude fat, and 5.0% crude fiber. The mice were housed on irradiated Enrich-o′ Cobs™ Laboratory Animal Bedding in static microisolators on a 12-hour light cycle at 20-22° C. (68-72° F.) and 40-60% humidity.
H1299 (NCI-H1299) NSCLC cells were obtained from the American Type Culture Collection, which reports the cell line to have originated from a lymph node metastasis and to lack p53 expression. The cell line was maintained as exponentially growing cultures in RPMI-1640 medium supplemented with 10% fetal bovine serum, 2 mM glutamine, 100 units/mL penicillin G sodium, 100 μg/mL streptomycin sulfate, 25 μg/mL gentamicin, 10 mM HEPES, and 0.075% sodium bicarbonate. The tumor cells were cultured in tissue culture flasks in a humidified incubator at 37° C., in an atmosphere of 5% CO2 and 95% air.
H1299 tumor cells were harvested during log phase growth and suspended in cold PBS. Each nude mouse was inoculated subcutaneously in the right flank with 0.2 mL of the cell suspension (1×10^7 cells). The tumors were periodically calipered in two dimensions to monitor size as the mean volume approached the desired 90-130 mm^3 range. Tumor size was calculated by the following formula:
where w=width and l=length, in mm, of the tumor. Tumor weight may be estimated with the assumption that 1 mg is equivalent to 1 mm^3 of tumor volume.
Compound 13A (MW 467.51, code-named XT26) was provided as a powder stored at −20° C., and protected from light during storage and handling. Dosing suspensions, in 0.5% carboxymethyl cellulose and 1% Tween® 80 in deionized water (Vehicle), were prepared fresh for each dose, and kept at 4° C. post formulation. Gemcitabine (Gemzar®, Lilly, 38 mg/mL, Lot # A866884A) was stored at room temperature. A fresh 12 mg/mL gemcitabine dosing solution was prepared on each treatment day by diluting an aliquot of the stock solution with saline.
Dosing began on D1 in four groups of mice (n=12/group in Groups 1, 3, and 4; n=6 in Group 2). XT26 and its vehicle were administered intraperitoneally (i.p.) twice daily for 28 days (b.i.d.×28), starting with the p.m. dose on D1 and ending with the a.m. dose on D29. Gemcitabine was administered i.p. once daily at three-day intervals for four doses (q3d×4). In all groups, the dosing volume of 10 ml/kg (0.2 ml/20 g mouse) was scaled to the weight of each individual animal, as measured twice weekly.
Group 1 mice received the XT26 vehicle b.i.d.×28, and served as the controls for the study. Group 2 received gemcitabine at 120 mg/kg. Group 3 was to receive XT26 at 100 mg/kg b.i.d.×28; on D21, four mice (Animals 1, 3, 4, and 5) erroneously received 200 mg/kg XT26 for their a.m. dose. […] Group 4 dosing at 200 mg/kg resumed on D17 on a qd (once daily)×13 dosing schedule. Because of a scheduling error, the D19 dose for Group 4 mice was omitted; qd dosing occurred on Days 17, 18, and 20-28.
Tumors were calipered twice weekly for the duration of the study, and each animal was euthanized when its neoplasm reached the predetermined endpoint volume (1200 mm^3) or at the end of the study, whichever came first. Animals that exited the study for tumor growth were documented as euthanized for tumor progression (TP), with the date of euthanasia. The time to endpoint (TTE) for each mouse was calculated by the following equation: […]
where TTE is expressed in days, endpoint volume is expressed in mm^3, b is the intercept, and m is the slope of the line obtained by linear regression of a log-transformed tumor growth data set.

[3] = Group 1 vs 3: XT26 ip bid × 28, 100 mg/kg
[4] = XT26 200 mg/kg ip bid × 8, then qd
[5] = XT26 200 mg/kg ip bid × 8, then qd on Days 17, 18, 20-28

| SMILES | IC50 [1] | Are the survival curves sig different? [2, 3] | Hazard Ratio [2, 3] | Median survival Ratio ([2]; Group 1 vs 3: vehicle / XT26 100 mg/kg) | % TGD ([2]; XT26 100 mg/kg ip bid × 28) | Regressions CR ([2]; XT26 100 mg/kg ip bid × 28) | Regressions PR ([2]; XT26 100 mg/kg ip bid × 28) | Regressions TFS ([2]; XT26 100 mg/kg ip bid × 28) | Median TTE ([2]; XT26 100 mg/kg ip bid × 28, endpoint 1200 mm^3, 28-day study) | MTV (n) Day 28 ([2]; XT26 100 mg/kg ip bid × 28, median tumor volume of animals not at endpoint (n in brackets), 100 mg/kg) | T − C ([2]; XT26 100 mg/kg ip bid × 28, vs Group 1 vehicle) | Regressions CR [2, 4] | Regressions PR [2, 4] | Regressions TFS [2, 4] | % TGD [2, 5] | T − C [2, 5] | Median TTE ([2]; XT26 200 mg/kg ip bid × 8, then qd on Days 17, 18, 20-28, n = 9) | MTV (n) Day 28 ([2]; XT26 200 mg/kg ip bid × 8, then qd, animals not at endpoint (n in brackets), 200 mg/kg) | Median survival ([2]; XT26 ip bid × 28, 100 mg/kg (Column B = treated group)) | survival advantage relative to the vehicle treatment ([2]; discontinuous 200 mg/kg XT26 therapy, five mice remaining after D10) |
| --- | --- | --- | --- | --- | --- | --- | --- | --- | --- | --- | --- | --- | --- | --- | --- | --- | --- | --- | --- | --- |
| CCS(=O)(=O)Nc1ccc(C2=NN(C(C)=O)C(c3ccc(OC)cc3)C2)cc1 (racemic) [Compound 1A, N-(4-(1-acetyl-5-(4-methoxyphenyl)-4,5-dihydro-1H-pyrazol-3-yl)phenyl)ethanesulfonamide] | 40 to 100 µM |  |  |  |  |  |  |  |  |  |  |  |  |  |  |  |  |  |  |  |
| COc1ccc([C@@H]2CC(c3ccc(NS(=O)(=O)c4ccc(F)cc4)cc3)=NN2C(C)=O)cc1 [Compound 13A, (S)—N-(4-(1-acetyl-5-(4-methoxyphenyl)-4,5-dihydro-1H-pyrazol-3-yl)phenyl)-4-fluorobenzenesulfonamide] |  | Yes | 2.315 | 0.8022 | 24% | 0 | 0 | 0 | 23.2 days | 1080 mm^3 and 1080 (3) mm^3 | 4.5 days | 0 | 0 | 0 | 13% | 2.5 days | 21.2 days | 527 mm^3 and 527 (1) mm^3 | 23.25 | little or no survival advantages |
